# Data published in patent US7338958B2, “Sulfoximine-substituted pyrimidines as CDK-and/or VEGF inhibitors, their production and use as pharmaceutical agents” (Schering AG, priority 2003, dated 2008).
# What was measured:
# [1] = tested on: DU 145, hormone-independent human prostate cancer cells; assay: Proliferation assay, DU145; format: cell-based; conditions: DU-145, 96 h, 4 days incubation, crystal violet
# Source text: (§1) Cultivated human tumor cells (MCF7, hormone-independent human breast cancer cells, related to ATCC HTB22; NCI-H460, human non-small-cell lung cancer cells, ATCC HTB-177, HCT 116, human colon cancer cells, ATCC CCL-247; DU 145, hormone-independent human prostate cancer cells, ATCC HTB-81; MaTu-MDR, hormone-independent, multiple pharmaceutical agent-resistant human breast cancer cells, EPO-GmbH, Berlin) were flattened out at a density of about 5000 cells/measuring point, depending on the growth rate of the respective cells, in a 96-well multititer plate in 200 μl of the corresponding growth medium. After 24 hours, the cells of one plate (zero-point plate) were colored with crystal violet (see below), while the medium of the other plates was replaced by fresh culture medium (200 μl), to which the test substances were added in various concentrations (0 μm, as well as in the range of 0.01-30 μm; the final concentration of the solvent dimethyl sulfoxide was 0.5%). The cells were incubated for 4 days in the presence of test substances. The cell proliferation was determined by coloring the cells with crystal violet: the cells were fixed by adding 20 μl/measuring point of an 11% glutaric aldehyde solution for 15 minutes at room temperature. After three washing cycles of the fixed cells with water, the plates were dried at room temperature. The cells were colored by adding 100 μl/measuring point of a 0.1% crystal violet solution (the pH was set at 3 by adding acetic acid). After three washing cycles of the colored cells with water, the plates were dried at room temperature. The dye was dissolved by adding 100 μl/measuring point of a 10% acetic acid solution. The extinction was determined by photometry at a wavelength of 595 nm. The change of cell growth, in percent, was calculated by normalization of the measured values to the extinction values of the zero-point plate (=0%) and the extinction of the untreated (0 μm) cells (=100%).
# MaTu-ADR = assay: Proliferation assay, MaTu-ADR; format: cell-based; conditions: Homo sapiens, 96 h, MaTu-ADR cells, 4 days incubation, crystal violet
# Source text: as §1
# [2] = molecular target: T1, VEGF receptor tyrosine kinase-2 (Homo sapiens, UniProt P35968); assay: VEGF Receptor-2 Kinase Assay; format: biochemical; conditions: poly-(Glu4Tyr) substrate, 33P-ATP, 10 minutes at 22° C.; read-out: VEGF-R2 IC50
# T1 construct: GST; made in house; host or cells: baculovirus-infected insect cells (Sf9)
# T1 sequence (P35968 20-1356): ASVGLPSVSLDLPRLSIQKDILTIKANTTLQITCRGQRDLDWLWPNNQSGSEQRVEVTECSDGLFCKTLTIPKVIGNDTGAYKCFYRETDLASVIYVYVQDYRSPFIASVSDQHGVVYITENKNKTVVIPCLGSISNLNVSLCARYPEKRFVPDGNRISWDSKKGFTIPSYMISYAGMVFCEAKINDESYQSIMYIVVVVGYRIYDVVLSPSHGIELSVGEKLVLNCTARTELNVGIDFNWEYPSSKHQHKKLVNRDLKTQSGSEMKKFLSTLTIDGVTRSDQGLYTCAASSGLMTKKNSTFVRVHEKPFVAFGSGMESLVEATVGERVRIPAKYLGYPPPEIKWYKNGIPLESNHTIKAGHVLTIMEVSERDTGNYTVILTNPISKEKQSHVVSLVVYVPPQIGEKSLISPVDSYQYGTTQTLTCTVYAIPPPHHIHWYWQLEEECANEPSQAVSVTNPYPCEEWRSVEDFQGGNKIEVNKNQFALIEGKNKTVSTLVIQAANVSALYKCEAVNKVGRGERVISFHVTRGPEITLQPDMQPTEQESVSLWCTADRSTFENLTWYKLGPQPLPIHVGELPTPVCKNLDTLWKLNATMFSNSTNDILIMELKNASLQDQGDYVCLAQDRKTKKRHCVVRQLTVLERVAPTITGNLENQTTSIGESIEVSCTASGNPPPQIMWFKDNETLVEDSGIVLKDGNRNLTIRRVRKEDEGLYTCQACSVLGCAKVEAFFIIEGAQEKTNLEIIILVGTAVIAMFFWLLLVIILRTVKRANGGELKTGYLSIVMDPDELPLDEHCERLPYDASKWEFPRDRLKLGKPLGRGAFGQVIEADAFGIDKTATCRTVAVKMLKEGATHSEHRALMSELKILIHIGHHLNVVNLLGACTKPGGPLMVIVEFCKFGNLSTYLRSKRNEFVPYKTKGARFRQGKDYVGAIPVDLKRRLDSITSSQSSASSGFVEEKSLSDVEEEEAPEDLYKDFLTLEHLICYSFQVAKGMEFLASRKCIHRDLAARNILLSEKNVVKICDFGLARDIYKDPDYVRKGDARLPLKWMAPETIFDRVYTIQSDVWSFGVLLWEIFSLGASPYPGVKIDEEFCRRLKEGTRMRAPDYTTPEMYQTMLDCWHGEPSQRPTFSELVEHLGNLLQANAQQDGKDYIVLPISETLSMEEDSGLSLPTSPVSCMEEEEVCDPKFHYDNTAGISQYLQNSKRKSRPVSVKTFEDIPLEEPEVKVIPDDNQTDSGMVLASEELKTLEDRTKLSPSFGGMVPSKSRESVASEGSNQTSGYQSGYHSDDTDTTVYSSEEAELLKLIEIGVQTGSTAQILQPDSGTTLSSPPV
# Description: VEGF Receptor-2 Kinase Assay
# Recombinant VEGF receptor tyrosine kinase-2 was purified as a GST fusion protein from baculovirus-infected insect cells (Sf9). Poly-(Glu4Tyr), which was used as a kinase substrate, was purchased by the Sigma Company.
# VEGF receptor tyrosine kinase (90 ng/measuring point) was incubated for 10 minutes at 22° C. in the presence of various concentrations of test substances (0 μm, as well as within the range of 0.001-30 μm) in 30 μl of assay buffer [40 mmol of Tris/HCl, […], 10 mmol of MgCl2, 1 mmol of MnCl2, 3 μmol of Na ortho-vanadate, 1.0 mmol of dithiothreitol, 8 μmol of adenosine trisphosphate (ATP), 27 μg/measuring point of poly-(Glu4Tyr), 0.2 μCi/measuring point of 33P-gamma ATP, 1% dimethyl sulfoxide]. The reaction was stopped by adding EDTA solution (250 mmol, pH 7.0, 10 μl/measuring point).
# (§2) From each reaction batch, 10 μl was applied to P30 filter strips (Wallac Company), and non-incorporated 33P-ATP was removed by subjecting the filter strips to three washing cycles for 10 minutes each in 0.5% phosphoric acid. After the filter strips were dried for one hour at 70° C., the filter strips were covered with scintillator strips (MeltiLex™ A, Wallac Company) and baked for one hour at 90° C. The amount of incorporated 33P (substrate phosphorylation) was determined by scintillation measurement in a gamma-radiation measuring device (Wallac).
# CDK1/CycB = molecular target: T2, CDK1/CycB (Homo sapiens, UniProt P06493); assay: CDK1/CycB Kinase Assay; format: biochemical; conditions: histone IIIS substrate, 33P-ATP, 15 minutes at 22° C.
# T2 construct: GST; purchased ProQinase GmbH, Freiburg; host or cells: baculovirus-infected insect cells (Sf9)
# T2 sequence (P06493 whole entry): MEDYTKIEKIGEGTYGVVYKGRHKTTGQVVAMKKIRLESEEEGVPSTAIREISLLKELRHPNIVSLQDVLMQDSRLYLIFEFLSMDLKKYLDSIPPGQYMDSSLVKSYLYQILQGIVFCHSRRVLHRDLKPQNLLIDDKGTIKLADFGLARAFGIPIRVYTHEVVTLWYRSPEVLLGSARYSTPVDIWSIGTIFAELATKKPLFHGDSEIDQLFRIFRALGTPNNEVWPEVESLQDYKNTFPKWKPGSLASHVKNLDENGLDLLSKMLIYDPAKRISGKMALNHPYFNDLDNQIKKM
# T2 sequence (P14635 whole entry partner): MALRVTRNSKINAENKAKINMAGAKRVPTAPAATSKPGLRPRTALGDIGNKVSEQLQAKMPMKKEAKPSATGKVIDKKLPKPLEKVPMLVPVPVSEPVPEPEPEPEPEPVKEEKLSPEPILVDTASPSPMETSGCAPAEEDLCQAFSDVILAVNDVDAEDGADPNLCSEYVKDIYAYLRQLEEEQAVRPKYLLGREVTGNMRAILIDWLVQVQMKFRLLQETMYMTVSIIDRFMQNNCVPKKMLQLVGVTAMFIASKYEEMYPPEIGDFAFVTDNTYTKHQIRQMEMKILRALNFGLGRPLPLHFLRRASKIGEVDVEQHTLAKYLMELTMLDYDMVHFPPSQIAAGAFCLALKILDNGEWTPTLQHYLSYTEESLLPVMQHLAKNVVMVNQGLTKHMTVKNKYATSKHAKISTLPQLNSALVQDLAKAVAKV
# Description: Recombinant CDK1- and CycB-GST-fusion proteins, purified from baculovirus-infected insect cells (Sf9), were purchased from ProQinase GmbH, Freiburg. Histone IIIS, used as a kinase substrate, is available commercially from the Sigma Company.
# The reaction was stopped by adding EDTA solution (250 mmol, pH 8.0, 14 μl/measuring point).
# as §2
# [3] = tested on: NCI-H460, human non-small-cell lung cancer cells; assay: Proliferation assay, H460; format: cell-based; conditions: NCI-H460, 96 h, 4 days incubation, crystal violet
# Source text: as §1
# [4] = tested on: MCF7, hormone-independent human breast cancer cells; assay: Proliferation assay, MCF7; format: cell-based; conditions: MCF7, 96 h, 4 days incubation, crystal violet
# Source text: as §1
# CDK2/CycE = molecular target: T3, CDK2/CycE (Homo sapiens, UniProt P24941); assay: CDK2/CycE Kinase Assay; format: biochemical; conditions: histone IIIS substrate, 33P-ATP, 15 minutes at 22° C.
# T3 construct: GST; purchased ProQinase GmbH, Freiburg; host or cells: baculovirus-infected insect cells (Sf9)
# Description: Recombinant CDK2- and CycE-GST-fusion proteins, purified from baculovirus-infected insect cells (Sf9), were purchased by ProQinase GmbH, Freiburg. Histone IIIs, which was used as a kinase substrate, was purchased by the Sigma Company.
# CDK2/CycE (50 ng/measuring point) was incubated for 15 minutes at 22° C. in the presence of various concentrations of test substances (0 μm, as well as within the range of 0.01-100 μm) in assay buffer [50 mmol of tris/HCl, pH 8.0, 10 mmol of MgCl2, 0.1 mmol of Na ortho-vanadate, 1.0 mmol of dithiothreitol, 0.5 μm of adenosine triphosphate (ATP), 10 μg/measuring point of histone IIIS, 0.2 μCi/measuring point of ^33P-gamma ATP, 0.05% NP40, 12.5% dimethyl sulfoxide]. The reaction was stopped by adding EDTA solution (250 mmol, pH 8.0, 14 μl/measuring point).
# as §2, with “^33P-ATP” for “33P-ATP”, “^33P” for “33P”
compound,measurement,setting,value
"CCOC(=O)N=S(C)(=O)c1ccc(Nc2ncc(Br)c(N[C@H](C)[C@@H](C)O)n2)cc1C (mixture of isomers) [Example 1.38, (RS)-S-[4-({5-bromo-4-[(1R,2R)-(2-hydroxy-1-methylpropyl)amino]pyrimidin-2-yl}amino)-2-methylphenyl]-N-(ethoxycarbonyl)-S-methyl sulfoximide]",IC50,[1],130 nM
same,IC50,MaTu-ADR,400 nM
same,IC50,[2],59 nM
same,IC50,CDK1/CycB,75 nM
same,IC50,[3],60 nM
same,IC50,[4],120 nM
same,IC50,CDK2/CycE,78 nM
"CCOC(=O)N=S(C)(=O)c1ccc(Nc2ncc(Br)c(N[C@H](C)C(C)(C)O)n2)cc1 (mixture of isomers) [Example 1.31, (RS)-S-[4-({5-bromo-4-[(R)-(2-hydroxy-1,2-dimethylpropyl)amino]pyrimidin-2-yl}amino)phenyl]-N-(ethoxycarbonyl)-S-methyl sulfoximide]",IC50,[1],300 nM
same,IC50,MaTu-ADR,700 nM
same,IC50,[2],140 nM
same,IC50,CDK1/CycB,27 nM
same,IC50,[3],180 nM
same,IC50,[4],200 nM
same,IC50,CDK2/CycE,9 nM
"C[C@@H](Nc1nc(Nc2ccc(S(=O)(CCO)=NS(=O)(=O)CC[Si](C)(C)C)cc2)ncc1Br)C(C)(C)O (mixture of isomers) [Example 1.12, (RS)-S-[4-({5-bromo-4-[(R)-(2-hydroxy-1,2-dimethylpropyl)amino]pyrimidin-2-yl}amino)phenyl]-S-(2-hydroxyethyl)-N-[2-(trimethylsilyl)ethylsulfonyl]sulfoximide]",IC50,[1],300 nM
same,IC50,MaTu-ADR,2800 nM
same,IC50,[2],160 nM
same,IC50,CDK1/CycB,160 nM
same,IC50,[3],400 nM
same,IC50,[4],200 nM
same,IC50,CDK2/CycE,49 nM
"CCOC(=O)N=S(=O)(CC)c1ccc(Nc2ncc(Br)c(N[C@H](C)C(C)(C)O)n2)cc1 (mixture of isomers) [Example 1.35, (RS)-S-[4-({5-bromo-4-[(R)-(2-hydroxy-1,2-dimethylpropyl)amino]pyrimidin-2-yl}amino)phenyl]-N-(ethoxycarbonyl)-S-ethyl sulfoximide]",IC50,[1],120 nM
same,IC50,MaTu-ADR,300 nM
same,IC50,[2],94 nM
same,IC50,CDK1/CycB,96 nM
same,IC50,[3],120 nM
same,IC50,[4],110 nM
same,IC50,CDK2/CycE,42 nM
"C[C@@H](O)[C@@H](C)Nc1nc(Nc2ccc(S(=O)(CCO)=NS(=O)(=O)CC[Si](C)(C)C)cc2)ncc1Br (mixture of isomers) [Example 1.16, (RS)-S-[4-({5-Bromo-4-[(1R,2R)-(2-hydroxy-1-methyl-propyl)amino]pyrimidin-2-yl}amino)phenyl]-S-(2-hydroxyethyl)-N-[2-(trimethylsilyl)ethylsulfonyl]sulfoximide]",IC50,[1],190 nM
same,IC50,MaTu-ADR,4000 nM
same,IC50,[2],130 nM
same,IC50,CDK1/CycB,170 nM
same,IC50,[3],200 nM
same,IC50,[4],180 nM
same,IC50,CDK2/CycE,130 nM
"CCOC(=O)N=S(C)(=O)c1ccc(Nc2ncc(Br)c(N[C@H](C)C(C)(C)O)n2)cc1C (mixture of isomers) [Example 1.37, (RS)-S-[4-({5-bromo-4-[(R)-(2-hydroxy-1,2-dimethylpropyl)amino]pyrimidin-2-yl}amino)-2-methylphenyl]-N-(ethoxycarbonyl)-S-methyl sulfoximide]",IC50,[1],160 nM
same,IC50,MaTu-ADR,300 nM
same,IC50,[2],57 nM
same,IC50,CDK1/CycB,63 nM
same,IC50,[3],< 100 nM
same,IC50,[4],170 nM
same,IC50,CDK2/CycE,48 nM
"COc1cc(Nc2ncc(Br)c(N[C@H](C)C(C)(C)O)n2)ccc1S(C)(=N)=O (mixture of isomers) [Example 1.23, (RS)-S-[4-({5-bromo-4-[(R)-(2-hydroxy-1,2-dimethylpropyl)amino]pyrimidin-2-yl}amino)-2-methoxyphenyl]-S-methyl sulfoximide]",IC50,[1],100 nM
same,IC50,MaTu-ADR,< 100 nM
same,IC50,[2],75 nM
same,IC50,[3],< 100 nM
same,IC50,[4],130 nM
same,IC50,CDK2/CycE,6 nM
"CCOC(=O)N=S(C)(=O)c1ccc(Nc2ncc(Br)c(N[C@H](C)[C@@H](C)O)n2)cc1 (mixture of isomers) [Example 1.32, (RS)-S-[4-({5-bromo-4-[(1R,2R)-(2-hydroxy-1-methylpropyl)amino]pyrimidin-2-yl}amino)phenyl]-N-(ethoxycarbonyl)-S-methyl sulfoximide]",IC50,[1],300 nM
same,IC50,MaTu-ADR,600 nM
same,IC50,[2],56 nM
same,IC50,CDK1/CycB,16 nM
same,IC50,[3],180 nM
same,IC50,[4],190 nM
same,IC50,CDK2/CycE,12 nM
"C[C@@H](Nc1nc(Nc2ccc(S(=O)(=NS(=O)(=O)CC[Si](C)(C)C)C3CCCC3)cc2)ncc1Br)C(C)(C)O (mixture of isomers) [Example 1.10, (RS)-S-[4-({5-bromo-4-[(R)-(2-hydroxy-1,2-dimethylpropyl)amino]pyrimidin-2-yl}amino)phenyl]-S-cyclopentyl-N-[2-(trimethylsilyl)ethylsulfonyl]sulfoximide]",IC50,[1],800 nM
same,IC50,MaTu-ADR,800 nM
same,IC50,[2],910 nM
same,IC50,CDK1/CycB,> 1000 nM
same,IC50,[3],700 nM
same,IC50,[4],500 nM
same,IC50,CDK2/CycE,> 1000 nM
"C[C@@H](Nc1nc(Nc2ccc(S(=N)(=O)CC3CC3)cc2)ncc1Br)C(C)(C)O (mixture of isomers) [Example 1.9, (RS)-S-[4-({5-bromo-4-[(R)-(2-hydroxy-1,2-dimethylpropyl)amino]pyrimidin-2-yl}amino)phenyl]-S-(cyclopropylmethyl)sulfoximide]",IC50,[1],100 nM
same,IC50,MaTu-ADR,100 nM
same,IC50,[2],49 nM
same,IC50,CDK1/CycB,5 nM
same,IC50,[3],110 nM
same,IC50,[4],100 nM
same,IC50,CDK2/CycE,4 nM
"C[C@@H](Nc1nc(Nc2ccc(S(=N)(=O)C3CCCC3)cc2)ncc1Br)C(C)(C)O (mixture of isomers) [Example 1.11, (RS)-S-[4-({5-bromo-4-[(R)-(2-hydroxy-1,2-dimethylpropyl)amino]pyrimidin-2-yl}amino)phenyl]-S-cyclopentylsulfoximide]",IC50,[1],< 100 nM
same,IC50,MaTu-ADR,100 nM
same,IC50,CDK1/CycB,44 nM
same,IC50,[3],< 100 nM
same,IC50,[4],100 nM
same,IC50,CDK2/CycE,25 nM
